Experiments:
[1] = system: rat optic nerve derived OPCs; assay: cell-based OPC differentiation assay quantifying % MBP-positive OLs by immunofluorescence after 6 days of treatment; conditions: for effect on % T3-induced MBP+OLs in combination with bexarotene (phenocopy of tasin-1, tamoxifen, LXR antagonist): heat maps, average n=3; for activity in enhancing OPC differentiation alone: single agent, without RXR activation
Source text: Combination-based screening and evaluation of LXR modulators. Pairwise screening of bexarotene and partner compounds was done in matrices of 9-12 doses for each and transferred onto 3 separate 384-well plates. […] Heat maps were generated using Prism to highlight impact of the combinations relative to baseline controls.
We evaluated various reported inhibitors of CYP51, TM7SF2 and EBP for their ability to enhance bexarotene-induced remyelination. We quantified activity based on immunofluorescence analysis of % MBP+OLs after 6 days of compound treatment, with vehicle/DMSO, clemastine and triiodothyronine (T3) controls on each plate using rat optic nerve derived OPCs.

[2] = dose of bexarotene used in the CCMR One trial; read-out: predicted Cmax; cited from earlier work
[3] = 20 mg daily dose of tamoxifen; cited from earlier work
[4] = system: LXR; assay: confocal imaging and line profile analysis of LXR localization in OPCs/oligodendrocytes; format: cell-based; conditions: 6 days of treatment; immunofluorescence, confocal imaging
Protocol: Confocal imaging and analysis of LXR expression. […] OPCs were then seeded at a density of 1,000 cells per well, and the plates were incubated at 37° C. with 5% CO2 for 6 d. On day 6, cells were then fixed for 20 min with 4% formaldehyde solution and stained with anti-LXRalpha/beta antibody (cat. #sc-271064, Santa Cruz Biotechnology) in 3% BSA, 0.3% Triton X-100 with overnight incubation at 4° C. The cells were washed and incubated with secondary antibody (Alexa Fluor 488 goat anti-mouse IgG, Life Technologies) and Hoechst 33342 (Invitrogen) for 1 h at room temperature. The cells were washed and plates were sealed and imaged using a Cellomics Cell Insight imaging reader (Thermo). Randomly-selected fields from 6 wells selected at random were imaged at 50× magnification using a Zeiss 780 confocal microscope. 10 cells within images from each treatment group were randomly selected for line profile analysis.
A line profile analysis of fluorescent intensities was performed by drawing an 18.5 μm line through the center of individual cells (n=10), from approximately 2-4 microns beyond the nuclear membrane on each side using the Fiji image processing platform. Fluorescence intensities over distance (μm) was graphed using Prism 9 software (GraphPad).

| SMILES | effect on % T3-induced MBP+OLs in combination with bexarotene (phenocopy of tasin-1, tamoxifen, LXR antagonist) [1] | localization of LXR following treatment [4] | activity in enhancing OPC differentiation alone [1] | other results |
| --- | --- | --- | --- | --- |
| CC(C)=CCC[C@@H](C)[C@H]1CC=C2C3=C(CC[C@@]21C)[C@@]1(C)CC[C@H](O)C(C)(C)[C@@H]1CC3 [FF-MAS, Follicular fluid meiosis-activating sterol] | combines with bexarotene (RXRg agonist) to phenocopy tasin-1, tamoxifen, or an LXR antagonist | – | – | – |
| Cc1cc(C)c(S(=O)(=O)N(CCc2cccc(Br)c2)Cc2ccc(-c3cccc(S(C)(=O)=O)c3)cc2)c(C)c1 [SR9243] | phenocopies GSK2033, FFMAS, tasin-1 and tamoxifen | – | – | – |
| CC(C)=CCC[C@@H](C)[C@H]1CC[C@H]2C3=C(CC[C@]12C)[C@@]1(C)CC[C@H](O)C[C@@H]1CC3 [Zymosterol] | phenocopies tasin-1, tamoxifen and LXR agonists | – | – | – |
| C=C(c1ccc(C(=O)O)cc1)c1cc2c(cc1C)C(C)(C)CCC2(C)C [bexarotene] | – | – | – | cell-based OPC differentiation ECmax of bexarotene (concentration required to achieve optimal activity) ([1]; bexarotene combined with tamoxifen): ~150 nM; Cmax [2]: 2600 nM |
| CC/C(=C(\c1ccccc1)c1ccc(OCCN(C)C)cc1)c1ccccc1 [tamoxifen] | – | significant shift in localization of LXR | minimally active | steady state plasma concentration [3]: 834 nM |
| COc1ccc(S(=O)(=O)N2CCC(N3CCC(C)CC3)CC2)cc1 [tasin-1] | – | significant shift in localization of LXR | minimally active | – |

— US20250319078A1, “METHOD FOR SYNERGISTIC ENHANCEMENT OF REMYELINATION VIA MODULATION OF RXR AND A HETERODIMERIC PARTNER” (THE SCRIPPS RESEARCH INSTITUTE, priority 2022, published 2025)
